24 compounds from US6534530B1, “Antipicornaviral compounds and compositions, their pharmaceutical uses, and materials for their synthesis” (Agouron Pharmaceuticals, Inc., priority 1999, dated 2003) can be followed below.

Like-named read-outs stand apart in the source and are kept apart here.

What is called EC50 is the concentration needed to bring the measured effect to its halfway point. Read a low EC50 as higher potency in that assay. The term Ki denotes the equilibrium dissociation constant of an inhibitor or competing ligand from its target.

Series [1] relates to HRV-14. Nature of the series: Antirhinoviral H1-HeLa cell culture assay (XTT), HRV-14. The series is classed as cell-based, human rhinovirus. As to conditions: Rhinovirus B, HRV14, HRV-14, H1-HeLa cells. On the technique in general: Tetrazolium assays rely on reduction of a dye to a coloured formazan, in cell work by metabolically active cells.
The nature of series [2]: in vitro. As to conditions: human.
The target of series [3] is T1, recombinant rhinovirus 3C protease, serotype 14 (Human rhinovirus 14, UniProt P03303).
T1 construct: Recombinant rhinovirus 3C proteases; made in house
Put plainly: Inhibition of rhinovirus 3C protease (FRET assay), serotype 14. The series is classed as biochemical. As to the method: (§1) Stock solutions (50 mM, in DMSO) of various compounds were prepared; dilutions were in the same solvent. Recombinant rhinovirus 3C proteases (see Birch et al., “Purification of recombinant human rhinovirus 14 3C protease expressed in Escherichia coli,” Protein Expr. Pur. (1995), vol. 6(5), 609-618) from serotypes 14, 16, and 2 were prepared by the following standard chromatographic procedures: (1) ion exchange using Q Sepharose Fast Flow from Pharmacia; (2) affinity chromatography using Affi-Gel Blue from Biorad; and (3) sizing using Sephadex G-100 from Pharmacia. Each assay sample contained 2% DMSO, 50 mM tris pH 7.6, 1 mM EDTA, a test compound at the indicated concentration, approximately 1 μM substrate, and 50-100 nM protease. The kobs/I values were obtained from reactions initiated by addition of enzyme rather than substrate. RVP activity was measured in the fluorescence resonance energy transfer assay. The substrate was (N-terminal) DABCYL-([…]-EDANS. In the uncleaved peptide, the EDANS fluorescence was quenched by the proximal DABCYL moiety. When the peptide was cleaved, the quenching was relieved, and activity was measured as an increase in fluorescence signal. The tabulated data in the column designated kobs/[I] were measured from progress curves in enzyme start experiments.

The target of series [4] is T2, recombinant rhinovirus 3C protease, serotype 16 (Human rhinovirus 16, UniProt Q82122).
T2 construct: Recombinant rhinovirus 3C proteases; made in house
Put plainly: Inhibition of rhinovirus 3C protease (FRET assay), serotype 16. As to conditions: HRV-16 3C protease. The series is classed as biochemical. The method, then:
as §1

The target of series [5] is T3, recombinant rhinovirus 3C protease, serotype 2 (Human rhinovirus 2, UniProt P04936).
T3 construct: Recombinant rhinovirus 3C proteases; made in house
Put plainly: Inhibition of rhinovirus 3C protease (FRET assay), serotype 2. The series is classed as biochemical. As to conditions: HRV-2 3C protease. The method, then: as §1

Series [6] deals with T4, rhinovirus 3C protease, HRV-89 (Human rhinovirus A serotype 89, UniProt P07210).
T4 construct: Recombinant rhinovirus 3C proteases
Nature of the series: Inhibition of rhinovirus 3C protease (FRET assay), serotype 89. The series is classed as biochemical, human rhinovirus 89. As to conditions: HRV-89 3C protease.

T1 sequence (P03303 1538-1719): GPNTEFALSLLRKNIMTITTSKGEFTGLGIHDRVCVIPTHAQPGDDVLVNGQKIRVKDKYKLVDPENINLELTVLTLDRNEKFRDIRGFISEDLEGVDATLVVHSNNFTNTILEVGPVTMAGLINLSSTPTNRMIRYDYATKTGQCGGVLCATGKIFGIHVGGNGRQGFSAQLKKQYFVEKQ
T3 sequence (P04936 1508-1690): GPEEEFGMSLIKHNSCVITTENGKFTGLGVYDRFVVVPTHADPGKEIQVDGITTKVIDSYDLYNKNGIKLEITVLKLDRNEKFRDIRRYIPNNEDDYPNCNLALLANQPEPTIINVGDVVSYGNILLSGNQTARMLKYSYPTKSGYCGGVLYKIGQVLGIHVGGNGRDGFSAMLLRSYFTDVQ
T2 sequence (Q82122 1511-1693): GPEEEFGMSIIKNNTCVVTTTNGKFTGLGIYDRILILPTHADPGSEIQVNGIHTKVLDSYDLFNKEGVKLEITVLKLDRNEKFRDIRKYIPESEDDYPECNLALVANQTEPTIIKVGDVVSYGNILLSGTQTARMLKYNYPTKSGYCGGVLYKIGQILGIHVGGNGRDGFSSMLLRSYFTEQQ
T4 sequence (P07210 1522-1704): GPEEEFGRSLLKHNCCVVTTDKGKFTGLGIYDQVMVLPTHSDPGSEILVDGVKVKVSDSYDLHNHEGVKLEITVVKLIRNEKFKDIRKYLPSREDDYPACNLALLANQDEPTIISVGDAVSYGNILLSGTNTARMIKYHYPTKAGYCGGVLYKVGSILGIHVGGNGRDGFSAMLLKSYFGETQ

Turning to `CCOC(=O)c1ccc(OCCC2CCN(c3ccc(C)nn3)CC2)cc1` [Pirodavir, reference compound], in series [1], it took 0.03 µM to reach a half-maximal effect (EC50). Further, the CC50 at 2 days in series [2] was over 10 µM.
In turn, `Cc1cc(CCCOc2c(C)cc(-c3noc(C(F)(F)F)n3)cc2C)on1` [Pleconaril, reference compound] returned an EC50 in series [1] of 0.01 µM. For the same compound, in series [2] (mock-infected H1-HeLa cells), the CC50 at 2 days was over 10 µM.
For `CC(C)C[C@H](NC(=O)OCc1ccccc1)C(=O)N[C@@H](Cc1ccccc1)C(=O)N[C@@H](C[C@@H]1CCNC1=O)C(=O)c1ccccn1` [Compound 23, Cbz-L-Leu-L-Phe-L-[(S)-Pyrrol-Ala]-2-Pyridine], the Ki in series [3] was 0.17 µM. In series [1], the 50% effective concentration (EC50) amounted to 4 µM. In addition, the CC50 at 2 days in series [2] (mock-infected H1-HeLa cells) was 200 µM.
For `CC(=O)NC[C@H](NC(=O)[C@H](Cc1ccccc1)NC(=O)[C@H](CC(C)C)NC(=O)OCc1ccccc1)C(=O)COC(=O)c1c(C)cc(C)cc1C` [Compound 3, Cbz-L-Leu-L-Phe-L-(N-Ac-amino-Ala)-CH2OC(O)-(2,4,6-trimethylphenyl)], in series [3] (HRV-14 3C protease, progress curves in enzyme start experiments), the “kobs/[I]” value is given as “slow”. Further, in series [1], the EC50 was over 25 µM. The compound further showed a CC50 at 2 days in series [2] (mock-infected H1-HeLa cells) of 25 µM.
Take `CC(=O)NC[C@H](NC(=O)[C@H](Cc1ccccc1)NC(=O)[C@H](CC(C)C)NC(=O)OCc1ccccc1)C(=O)c1nccs1` [Compound 13, Cbz-L-Leu-L-Phe-L-(N-Ac-amino-Ala)-2-Thiazole]: the Ki was found to be 24 µM in series [3], 4 µM in series [4] and 13.3 µM in series [5]. Besides, in series [1], the EC50 is over 56 µM. In series [2] (mock-infected H1-HeLa cells), this compound yielded a CC50 at 2 days of 56 µM.
Regarding `CC(=O)NC[C@H](NC(=O)[C@H](Cc1ccccc1)NC(=O)[C@H](CC(C)C)NC(=O)OCc1ccccc1)C(=O)c1ccccn1` [Compound 8, Cbz-L-Leu-L-Phe-L-(N-Ac-amino-Ala)-2-Pyridine], the Ki in series [3] came to 80 µM.
As to `COCC(=O)[C@H](CNC(C)=O)NC(=O)[C@H](Cc1ccccc1)NC(=O)[C@H](CC(C)C)NC(=O)OCc1ccccc1` [Compound 19, Cbz-L-Leu-L-Phe-L-(N-Ac-amino-Ala)-CH2OCH3], the inhibition constant Ki in series [3] was 27 µM; in series [4], 27 µM; in series [5], 12.9 µM; in series [6], 20.6 µM.
As to `CC(=O)[C@H](C[C@@H]1CCNC1=O)NC(=O)[C@H](Cc1ccccc1)NC(=O)[C@H](CC(C)C)NC(=O)OCc1ccccc1` [Compound 24, Cbz-L-Leu-L-Phe-L-[(S)-Pyrrol-Ala]-CH3], in series [3], the Ki was determined as 0.65 µM. Also, the EC50 in series [1] is over 10 µM. Also, in series [2] (mock-infected H1-HeLa cells), the CC50 at 2 days is over 10 µM.
Turning to `C#CC(=O)[C@H](CNC(C)=O)NC(=O)[C@H](Cc1ccccc1)NC(=O)[C@H](CNC(C)=O)NC(=O)OCc1ccccc1` [Compound 16], the Ki in series [3] came out at 0.035 µM. In series [1], the EC50 was over 100 µM. This compound also registered a CC50 at 2 days in series [2] (mock-infected H1-HeLa cells) of over 100 µM.
Consider `CC(=O)NC[C@@H](NC(=O)[C@H](Cc1ccccc1)NC(=O)[C@H](CC(C)C)NC(=O)OCc1ccccc1)C(=O)C(=O)N1CCCCC1` [Compound 12, Cbz-L-Leu-L-Phe-D-(N-Ac-amino-Ala)-C(O)-Piperidine], for which the Ki in series [3] came to 10.7 µM. The EC50 in series [1] was determined as 39 µM.
For the compound “Cbz-L-Leu-L-Phe-L-(N-Boc-amino-Ala)-CH3 [Compound 4]”, the Ki in series [3] (HRV-14 3C protease, read-out: Ki) was 16.3 µM.
Consider `CC(C)C[C@H](NC(=O)OCc1ccccc1)C(=O)N[C@@H](Cc1ccccc1)C(=O)N[C@@H](CNC(=O)OC(C)(C)C)C(=O)c1ccccn1` [Compound 7, Cbz-L-Leu-L-Phe-L-(N-Boc-amino-Ala)-2-Pyridine], for which the inhibition constant (Ki) in series [3] came out at 71 µM.
Take `CC(C)C[C@H](NC(=O)OCc1ccccc1)C(=O)N[C@@H](Cc1ccccc1)C(=O)N[C@@H](CCC(N)=O)C(=O)c1nc2ccccc2s1` [Compound 20, Cbz-L-Leu-L-Phe-L-Gln-2-Benzthiazole]: in series [3], the Ki is 3.5 µM. In series [1], this compound gave an EC50 of 17.4 µM. Besides, the CC50 at 2 days in series [2] (mock-infected H1-HeLa cells) was over 100 µM.
`CC(C)C[C@H](NC(=O)OCc1ccccc1)C(=O)N[C@@H](Cc1ccccc1)C(=O)N[C@@H](CCC(N)=O)C(=O)COC(=O)c1c(Cl)cccc1Cl` [Compound 27, Cbz-L-Leu-L-Phe-L-Gln-CH2OC(O)-(2,6-dichlorophenyl)]: the kinact/KI in series [3] (pH 7.6, HRV-14 3C protease, progress curves in enzyme start experiments, read-out: kobs/[I]) is 2500 M⁻¹ s⁻¹.
Take `COCC#CC(=O)[C@H](CNC(C)=O)NC(=O)[C@H](Cc1ccccc1)NC(=O)[C@H](CC(C)C)NC(=O)OCc1ccccc1` [Compound 17, Cbz-L-Leu-L-Phe-L-(N-Ac-amino-AIa)-C≡CCH2OCH3]: the Ki in series [3] amounted to 0.075 µM. Also, the concentration giving a half-maximal response (EC50) in series [1] was over 100 µM. This compound also came in with a CC50 at 2 days in series [2] (mock-infected H1-HeLa cells) of over 100 µM.
`CC(C)C[C@H](NC(=O)OCc1ccccc1)C(=O)N[C@@H](Cc1ccccc1)C(=O)N[C@@H](C[C@@H]1CCNC1=O)C(=O)c1ccccc1` [Compound 26, Cbz-L-Leu-L-Phe-L-[(S)-Pyrrol-Ala]-Ph]: the Ki in series [3] was determined as 3.22 µM. This compound came in with an EC50 in series [1] of over 10 µM. Besides, the CC50 at 2 days in series [2] (mock-infected H1-HeLa cells) was over 10 µM.
In the case of `CC(=O)NC[C@H](NC(=O)[C@H](Cc1ccccc1)NC(=O)[C@H](CC(C)C)NC(=O)OCc1ccccc1)C(C)=O` [Compound 5, Cbz-L-Leu-L-Phe-L-(N-Ac-amino-Ala)-CH3], in series [3], the Ki worked out at 138 µM.
Still for that read-out and setting: in the case of `CSCC(=O)[C@H](CCC(N)=O)NC(=O)[C@H](Cc1ccccc1)NC(=O)[C@H](CC(C)C)NC(=O)OCc1ccccc1` [Compound 2, Cbz-L-Leu-L-Phe-L-(Gln)-CH2SCH3] it was 50 µM; in that of `CC(=O)NC[C@H](NC(=O)[C@H](Cc1ccccc1)NC(=O)[C@H](CC(C)C)NC(=O)OCc1ccccc1)C(=O)C(=O)N1CCCCC1` [Compound 11, Cbz-L-Leu-L-Phe-L-(N-Ac-amino-Ala)-C(O)-Piperidine], over 110 µM.
For `CSCC(=O)[C@H](CCC(=O)NC(c1ccccc1)(c1ccccc1)c1ccccc1)NC(=O)[C@H](Cc1ccccc1)NC(=O)[C@H](CC(C)C)NC(=O)OCc1ccccc1` [Compound 1, Cbz-L-Leu-L-Phe-L-(Tr-Gln)-CH2SCH3], in series [3], the Ki came out at 9 µM.
Consider `CNC(=O)C(=O)[C@H](CNC(C)=O)NC(=O)[C@H](Cc1ccccc1)NC(=O)[C@H](CC(C)C)NC(=O)OCc1ccccc1` [Compound 10, Cbz-L-Leu-L-Phe-L-(N-Ac-amino-Ala)-C(O)NHCH3], for which the Ki in series [3] came out at 20 µM. Besides, the EC50 in series [1] worked out at 251 µM. Also, the CC50 at 2 days in series [2] (mock-infected H1-HeLa cells) was over 320 µM.
For `CC(C)C[C@H](NC(=O)OCc1ccccc1)C(=O)N[C@@H](Cc1ccccc1)C(=O)N[C@@H](C[C@@H]1CCNC1=O)C(=O)c1cc2ccccc2s1` [Compound 25, Cbz-L-Leu-L-Phe-L-[(S)-Pyrrol-Ala]-2-Benzothiophene] the same measures were 4.7 µM, over 10 µM and over 10 µM.
For the compound `CC(C)C[C@H](NC(=O)OCc1ccccc1)C(=O)N[C@@H](Cc1ccccc1)C(=O)N[C@@H](CNC(=O)OC(C)(C)C)C(=O)c1nc2ccccc2s1` [Compound 6, Cbz-L-Leu-L-Phe-L-(N-Boc-amino-Ala)-2-Benzthiazole], the inhibition constant Ki in series [3] is 4.8 µM.
As for `C=CC(=O)[C@H](CNC(C)=O)NC(=O)[C@H](Cc1ccccc1)NC(=O)[C@H](CC(C)C)NC(=O)OCc1ccccc1` [Compound 15, Cbz-L-Leu-L-Phe-L-(N-Ac-amino-Ala)-CH=CH2], the Ki in series [3] turned out to be 0.098 µM. In series [1], this compound displayed an EC50 of over 100 µM. Besides, the CC50 at 2 days in series [2] (mock-infected H1-HeLa cells) was over 100 µM.
